Here are results for one compound from US7588899B2, “Fluorescent probes for use in protein kinase inhibitor binding assay” (Boehringer Ingelheim Pharmaceuticals, Inc., priority 2003, dated 2009).

The target of the experiment is STK12 kinase domain (Homo sapiens, UniProt Q96GD4). Put plainly: Fluorescence polarization titration of the fluorescent probe with STK12 kinase domain. Format: binding. The settings on record: 25 nM probe, STK12 kinase domain serially diluted. As to the method:
Step one: Characterization of the Fluorescent Probe
An absorbance spectrum is first evaluated for each probe. The excitation and emission spectra are then measured in order to identify the appropriate excitation and emission wavelengths for detecting the probe. An example of such a probe is 6-(2,7-difluoro-6-hydroxy-3-oxo-3H-xanthen-9-yl)-N-[6-(5-nitro-2-phenylamino-pyrimidin-4-ylamino)-hexyl]-isophthalamic acid where the excitation and emission maxima are 496 nm and 524 nm, respectively. These fluorescence spectra were measured on an SLM-8100 fluorimeter with the probe dissolved in an assay buffer (50 mM HEPES, pH 7.4, 100 mM NaCl, 5 mM MgCl2 5 % Glycerol, 200 mM TCEP and 0.01% (w/v) CHAPS, 2 % DMSO).
The affinity of the probe for STK12 kinase domain was then determined in a titration experiment. The polarization assay is carried out in Corning® Costar® NBS 96-well solid black flat bottom plates. In this example, an LJL Analyst® assay detection system was used with filters appropriate for the excitation/emission characteristics of the fluorescent probe. STK12 kinase domain was serially diluted into wells containing 25 nM probe to cover a broad concentration range across the plate. In addition, several wells contain either probe alone or probe with the highest concentration of STK12 kinase domain. This is done in order to calculate the Qb/Qf ratio for the probe/kinase domain pair. […]

Sequence of STK12 kinase domain (Q96GD4 77-327 limits assumed): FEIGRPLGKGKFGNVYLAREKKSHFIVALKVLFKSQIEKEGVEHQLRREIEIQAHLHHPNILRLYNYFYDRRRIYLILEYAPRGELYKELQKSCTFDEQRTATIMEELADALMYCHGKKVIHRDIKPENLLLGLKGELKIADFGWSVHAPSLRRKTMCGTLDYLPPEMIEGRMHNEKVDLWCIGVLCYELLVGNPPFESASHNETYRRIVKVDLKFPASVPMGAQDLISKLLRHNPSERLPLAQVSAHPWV

In the case of `O=C(NCCCCCCNc1nc(Nc2ccccc2)ncc1[N+](=O)[O-])c1ccc(-c2c3cc(F)c(=O)cc-3oc3cc(O)c(F)cc23)c(C(=O)O)c1` [Compound G, 6-(2,7-difluoro-6-hydroxy-3-oxo-3H-xanthen-9-yl)-N-[6-(5-nitro-2-phenylamino-pyrimidin-4-ylamino)-hexyl]-isophthalamic acid], the “binding of fluorescent probe to STK12 kinase domain” value is given as “binds to the active site of STK12 kinase domain”.
